The source made the active and inactive calls. The rule behind the calls is not given here.

For eleven compounds, Activity and inhibition results are on record in ChEMBL document CHEMBL4340538, “Cynaropicrin and inhibition of NF-κB activation: A structure activity relationship study” (Bioorg Med Chem Lett, 2019).

What all share (type): cell-based
Series [1] relates to HEK293. Kind of series: Cytotoxicity against human HEK293 cells at 0.75 uM to 3 uM after 7 hrs by WST-8 assay. The following applies: hek293, 7 h. On the technique in general: Tetrazolium dyes change colour on reduction, which living cells bring about.
Series [2] has as its system HEK293. Kind of series: Cytotoxicity against human HEK293 cells at 3 uM after 7 hrs by WST-8 assay. The following applies: hek293, 7 h.
Series [3] has as its system HEK293. Kind of series: Inhibition of TNFalpha-induced NFkappaB activation in human HEK293 cells expressing pGL4.32 [luc2p/NF-kBRE/Hygro] assessed as NFkappaB activity by measuring relative light units at 0.75 uM incubated for 2 hrs followed by TNFalpha addition and measured after 5 hrs by luciferase reporter gene assay. Background: A reporter such as luciferase makes a cellular process visible.

For series [4], the system named is HEK293. Put plainly: Inhibition of TNFalpha-induced NFkappaB activation in human HEK293 cells expressing pGL4.32 [luc2p/NF-kBRE/Hygro] assessed as NFkappaB activity by measuring relative light units at 1.5 uM incubated for 2 hrs followed by TNFalpha addition and measured after 5 hrs by luciferase reporter gene assay.
Series [5] deals with HEK293. Kind of series: Inhibition of TNFalpha-induced NFkappaB activation in human HEK293 cells expressing pGL4.32 [luc2p/NF-kBRE/Hygro] assessed as NFkappaB activity by measuring relative light units at 3 uM incubated for 2 hrs followed by TNFalpha addition and measured after 5 hrs by luciferase reporter gene assay.
In series [6] the test system is HEK293. Kind of series: Inhibition of TNFalpha-induced NFkappaB activation in human HEK293 cells expressing pGL4.32 [luc2p/NF-kBRE/Hygro] at 2.5 uM to 10 uM incubated for 2 hrs followed by TNFalpha addition and measured after 5 hrs by luciferase reporter gene assay.
For series [7], the system named is HEK293. Kind of series: Inhibition of TNFalpha-induced NFkappaB activation in human HEK293 cells expressing pGL4.32 [luc2p/NF-kBRE/Hygro] at 80 uM incubated for 2 hrs followed by TNFalpha addition and measured after 5 hrs by luciferase reporter gene assay.

As for `C=C1C(=O)O[C@@H]2[C@H]3C(=C)[C@@H](O)C[C@H]3C(=C)C[C@H](O)[C@@H]12` [DESACYLCYNAROPICRIN], the Activity entry in the series on HEK293 [1] is “Non-Toxic”; with HEK293 [2], “Non-Toxic”; with HEK293 [3], 127 RLU; in the series on HEK293 [4] it was 119 RLU; with HEK293 [5] it was 96.4 RLU.
As to `C=C1C(=O)O[C@@H]2[C@H]3C(=C)[C@@H](O)C[C@H]3C(=C)C[C@H](OC(=O)C(C)CO)[C@@H]12` (some centres not stated), the Activity result in the series with HEK293 [1] was “Non-Toxic”; with HEK293 [2], “Non-Toxic”; in the series with HEK293 [3], 123 RLU; in the series with HEK293 [4] it was 135 RLU; with HEK293 [5], 137 RLU.
On to `C=C(COC)C(=O)O[C@H]1CC(=C)[C@@H]2C[C@H](O)C(=C)[C@@H]2[C@H]2OC(=O)C(=C)[C@@H]21`, for which the Activity result with HEK293 [1] was “Non-Toxic”; with HEK293 [2], “Non-Toxic”; in the series on HEK293 [3] it was 161 RLU; with HEK293 [4] it was 151 RLU; in the series with HEK293 [5] it was 137 RLU.
Regarding `C=C(COCOC)C(=O)O[C@H]1CC(=C)[C@@H]2C[C@H](OCOC)C(=C)[C@@H]2[C@H]2OC(=O)C(=C)[C@@H]21`, the Activity entry in the series with HEK293 [1] was “Non-Toxic”; in the series on HEK293 [2], “Non-Toxic”; with HEK293 [3], 154 RLU; in the series on HEK293 [4] it was 98.3 RLU; in the series with HEK293 [5], 8.97 RLU.
For the compound `C=C(CO)C(=O)O[C@H]1CC(=C)[C@@H]2C[C@H](O)C(=C)[C@@H]2[C@H]2OC(=O)C(=C)[C@@H]21` [CYNAROPICRIN], the Activity result is “Non-Toxic” with HEK293 [1]; “Non-Toxic” in the series with HEK293 [2]; 134 RLU in the series with HEK293 [3]; 72.8 RLU in the series with HEK293 [4]; 5.67 RLU in the series with HEK293 [5]. Further, in the series with HEK293 [6], the inhibition result was “Active”.
With `S=C(S)N1CCCC1`, the inhibition result with HEK293 [7] was “Active”.
For `C=C(COC)C(=O)O[C@H]1CC(=C)[C@@H]2C[C@H](OC)C(=C)[C@@H]2[C@H]2OC(=O)C(=C)[C@@H]21`, the Activity entry in the series on HEK293 [1] was “Non-Toxic”; in the series on HEK293 [2] it was “Non-Toxic”; with HEK293 [3], 174 RLU; with HEK293 [4] it was 158 RLU; in the series with HEK293 [5] it was 134 RLU.
With `C=C1[C@@H]2[C@H]3OC(=O)C(C)[C@@H]3[C@@H](OC(=O)C(C)CO)CC(=C)[C@@H]2C[C@@H]1O` (some centres not stated), the Activity entry in the series on HEK293 [1] is “Non-Toxic”; in the series with HEK293 [2], “Non-Toxic”; with HEK293 [3], 123 RLU; with HEK293 [4], 139 RLU; in the series with HEK293 [5], 137 RLU.
Turning to `C=C1C(=O)O[C@@H]2[C@H]3C(=C)[C@@H](OCOC)C[C@H]3C(=C)C[C@H](O)[C@@H]12`, the Activity entry with HEK293 [1] was “Non-Toxic”; with HEK293 [2] it was “Non-Toxic”; in the series with HEK293 [3], 127 RLU; in the series on HEK293 [4], 125 RLU; with HEK293 [5] it was 100 RLU.
As for `C=C(COC(C)=O)C(=O)O[C@H]1CC(=C)[C@@H]2C[C@H](OC(C)=O)C(=C)[C@@H]2[C@H]2OC(=O)C(=C)[C@@H]21`, the Activity entry with HEK293 [1] was “Non-Toxic”; with HEK293 [2], “Non-Toxic”; with HEK293 [3], 171 RLU; with HEK293 [4], 142 RLU; in the series on HEK293 [5], 93.5 RLU.
As to `C=C(COC(C)=O)C(=O)O[C@H]1CC(=C)[C@@H]2C[C@H](O)C(=C)[C@@H]2[C@H]2OC(=O)C(=C)[C@@H]21`, the Activity result in the series on HEK293 [1] was “Non-Toxic”; in the series with HEK293 [2], “Non-Toxic”; with HEK293 [3], 130 RLU; in the series with HEK293 [4] it was 110 RLU; with HEK293 [5], 33.8 RLU.
